Assay results: US10253010B2, “C-glycoside derivative” (SIHUAN PHARMACEUTICAL HOLDINGS GROUP LTD., priority 2011, dated 2019)
Like-named read-outs stand apart in the source and are kept apart here.

Tests used:
[1] = Urine glucose assay in normal rats; assay type: in vivo, Sprague-Dawley rats; settings: normal male SD rats, 10 mg/Kg oral, glucose 5 g/kg, 24 h urine; for Urine glucose mass: standardized to 200 g body weight
Protocol: SPF-grade male Sprague-Dawley rats, 6-weeks aged, were used in this urine glucose assay. After the rats were fasted for 15 h, the rats were divided randomly into a blank control group, a model group, a positive drug group and a test drug group according to their body weights. The rats were put into metabolic cages where water was available but food was unavailable. The urines in this 24 hours were collected. Then, the drugs were orally administered (10 mg/Kg) and then the glucose was fed (5 g/kg) to the animals. Then the animals were put into metabolic cages. The rats were supplemented with food one hour after the drug administration and the glucose feeding, and then could freely contact the diets. The urines in this 24 hours were collected and recorded. The collected urines were centrifuged at 3000 rpm for 15 mins. The residues were removed. The supernatants were taken and the urine glucose contents therein were measured.
The urine glucose contents were standardized based on the body weight of 200 g. The data were expressed in average±standard deviation. The resulting values were analyzed with one-way ANOVA, and the comparisons between groups were conducted with one-way ANOVA and Dunnett test, where p<0.05 was considered to have a statistical significance.

[2] = Rat in vivo pharmacokinetic assay (IV and PO); set-up: species or system SD rats; settings: plasma, male SD rat; for half-life: read-out: T1/2 (half-life) (converted); for bioavailability: PO 5 mg/kg versus IV 2 mg/kg, read-out: F % (absolute bioavailability)
Protocol: Rat In Vivo Pharmacokinetic Assay for the Present Compounds
Assay animals: 6-8 weeks aged male SD rats (purchased from Vital River Laboratories), 6 rats per compound, weighing 220-250 g.
Dissolved in an appropriate solvent (5% DMSO+95% (6% HP-β-CD solution)).
Administration: See Table 2
Blood collection: each of about 100 μL whole blood were collected at 0 h, 0.083 h, 0.25 h, 0.5 h, 1 h, 2 h, 4 h, 6 h, 8 h and 24 h. The collected blood samples were centrifuged at 4° C. at 8000 rpm in a low temperature high-speed centrifuge (5415R, Eppendorf) for 6 mins to separate the blood plasm. The separated plasm was preserved at −80° C. in a refrigerator.
20 μL of the plasm was carefully taken out, to which was added 200 μL acetonitrile solution (containing internal standard KBP-1204 50 ng/ml). The plasm was subjected to a vortex at 1500 rpm for 3 mins, and then centrifuged at 12000 rpm for 5 mins. The supernatant was taken and was analyzed with LC-MS/MS (API4000, Applied Biosystems). Equation Absolute bioavailability F %=[AUC]INF(PO)*Dose(IV)/[AUC]INF(IV)*Dose(PO)

[3] = target: T1, human SGLT1 (Homo sapiens, UniProt P13866); experiment: Inhibition of sodium dependent [14C]-AMG uptake in CHO cells stably expressing human SGLT1; assay type: cell-based; settings: CHO cells expressing human SGLT1, [14C]-AMG uptake
T1 sequence (P13866 1-664): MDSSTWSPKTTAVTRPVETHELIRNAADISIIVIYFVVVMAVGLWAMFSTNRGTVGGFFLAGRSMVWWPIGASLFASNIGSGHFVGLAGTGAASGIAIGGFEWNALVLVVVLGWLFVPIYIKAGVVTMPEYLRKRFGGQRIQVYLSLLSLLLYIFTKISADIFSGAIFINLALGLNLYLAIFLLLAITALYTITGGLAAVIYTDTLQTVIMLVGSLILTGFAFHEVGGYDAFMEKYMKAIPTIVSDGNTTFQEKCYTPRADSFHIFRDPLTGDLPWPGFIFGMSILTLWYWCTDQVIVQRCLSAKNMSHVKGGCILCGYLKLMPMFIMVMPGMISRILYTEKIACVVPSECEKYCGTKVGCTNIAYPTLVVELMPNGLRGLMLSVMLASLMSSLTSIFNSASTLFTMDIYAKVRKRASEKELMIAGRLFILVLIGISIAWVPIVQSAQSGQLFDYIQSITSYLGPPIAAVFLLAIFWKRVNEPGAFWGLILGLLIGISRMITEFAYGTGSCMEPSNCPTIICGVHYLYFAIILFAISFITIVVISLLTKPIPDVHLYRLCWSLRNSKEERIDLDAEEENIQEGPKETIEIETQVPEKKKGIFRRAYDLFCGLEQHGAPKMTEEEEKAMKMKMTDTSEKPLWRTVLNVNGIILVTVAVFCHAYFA
Protocol: (§1) In the in vitro evaluation method according to the present invention, the human SGLT2 and SGLT1 sequences were transfected to Chinese hamster ovary cells to express stably. By measuring inhibition of the sodium dependent adsorption of [^14C]-labeled […]-D-glucopyranoside (AMG) into the cells, the half-inhibition concentration IC50 was determined.
(§2) Buffer A (KRH-Na+): 120 mM NaCl, 4.7 mM KCl, 1.2 mM MgCl2, 2.2 mM CaCl2, 10 mM HEPES (PH 7.4 with 1 mM Tris).
(§3) Buffer A− (KRH-NMG): 120 mM NMG, 4.7 mM KCl, 1.2 mM MgCl2, 2.2 mM CaCl2, 10 mM HEPES (PH 7.4 with 1 mM Tris).
(§4) Buffer D: 120 mM NaCl, 4.7 mM KCl, 1.2 mM MgCl2, 2.2 mM CaCl2, 10 mM HEPES, 0.5 mM phlorizin (PH 7.4 with 1 mM Tris).
(§5) Assay method: Human SGLT2 and SGLT1 sequences were stably expressed in the CHO cells. The cell culture was conducted in a 96-well plate for 12 hr. The plate was washed with KRH-Na+ (Buffer A) or KRH-NMG (Buffer A−) buffering solution for three times, 200 μL/well. Then the plate was washed with a buffering solution containing Buffer A or Buffer A− plus [^14C]-AMG (10 μCi/mL), 100 μL/well. The cell culture was conducted at 37° C. for 1 h. Then, 100 μL of ice pre-cooled buffering solution (Buffer D) was added to terminate the assay. The plate was washed for 5 times. Then 100 mM NaOH solution was added, 20 μL/well, and the centrifugation at 600 rpm was conducted for 5 mins. Then Microscint 40 solution was added, 80 μl/well, and the centrifugation at 600 rpm was conducted for 5 mins. Finally, the radioactivity of [^14C]-AMG was detected with MicroBeta Trilux (purchased from PerkinElmer Co. Ltd.) according to the scintillation counting method, and the half-inhibition concentration IC50 was calculated.
(§6) The above assays were entrusted to Shanghai ChemPartner Co. Ltd.

[4] = target: T2, human SGLT2 (Homo sapiens, UniProt P31639); experiment: Inhibition of sodium dependent [14C]-AMG uptake in CHO cells stably expressing human SGLT2; assay type: cell-based; settings: for IC50: CHO cells expressing human SGLT2, [14C]-AMG uptake; for Selectivity: SGLT1 IC50 versus SGLT2 IC50
T2 sequence (P31639 1-672): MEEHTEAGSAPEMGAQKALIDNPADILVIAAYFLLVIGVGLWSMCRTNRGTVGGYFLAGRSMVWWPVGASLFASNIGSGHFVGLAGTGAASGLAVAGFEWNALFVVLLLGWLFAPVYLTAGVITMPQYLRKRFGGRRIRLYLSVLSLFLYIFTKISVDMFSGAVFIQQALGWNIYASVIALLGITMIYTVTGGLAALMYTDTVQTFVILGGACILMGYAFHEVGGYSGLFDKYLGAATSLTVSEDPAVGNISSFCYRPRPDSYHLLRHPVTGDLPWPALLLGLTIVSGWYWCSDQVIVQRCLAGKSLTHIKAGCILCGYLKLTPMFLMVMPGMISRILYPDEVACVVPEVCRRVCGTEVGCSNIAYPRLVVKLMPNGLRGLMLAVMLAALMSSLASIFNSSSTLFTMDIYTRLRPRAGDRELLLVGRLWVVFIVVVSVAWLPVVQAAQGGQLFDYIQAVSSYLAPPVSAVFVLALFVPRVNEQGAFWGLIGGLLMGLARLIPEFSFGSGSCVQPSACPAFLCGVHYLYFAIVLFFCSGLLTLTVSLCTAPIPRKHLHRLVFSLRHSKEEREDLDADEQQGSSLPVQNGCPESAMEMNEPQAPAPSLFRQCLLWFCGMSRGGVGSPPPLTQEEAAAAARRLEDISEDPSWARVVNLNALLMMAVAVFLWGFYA
Protocol: as §1, §2, §3, §4, §5, §6

| AUC(0-t) ([2]; IV, 2 mg/kg) [ng·h/mL] | AUC(0-inf) ([2]; IV, 2 mg/kg) [ng·h/mL] | half-life ([2]; IV, 2 mg/kg) [h] | bioavailability [2] [%] | AUC(0-t) ([2]; PO, 5 mg/kg) [ng·h/mL] | AUC(0-inf) ([2]; PO, 5 mg/kg) [ng·h/mL] | half-life ([2]; PO, 5 mg/kg) [h] | IC50 [3] [nM] | IC50 [4] [nM] | Selectivity [4] | SMILES | Urine volume [1] [mL] | Urine glucose mass [1] [mg/200 g] |
| --- | --- | --- | --- | --- | --- | --- | --- | --- | --- | --- | --- | --- |
| 1090 ± 138 | 1100 ± 142 | 0.7 ± 0.07 | 16.5 | 426 ± 116 | 457 ± 114 | 1.33 ± 0.33 |  |  |  | OC[C@H]1O[C@@H](c2ccc(Cl)c(Cc3ccc(O[C@H]4CCOC4)cc3)c2)[C@H](O)[C@@H](O)[C@@H]1O [BI-10773, reference compound] | 16.63 | 866.67 |
| 12400 ± 732 | 13500 ± 451 | 6.81 ± 0.74 | 87.2 | 26300 ± 1790 | 29500 ± 2720 | 7.33 ± 0.96 | 2400 |  |  | OC[C@H]1OC(c2ccc(Cl)c(Cc3ccc(OC4CC5CC5C4)cc3)c2)[C@H](O)[C@@H](O)[C@@H]1O (some centres unmarked) [Compound 4] | 18.50 | 1197.79 |
| 6950 ± 100 | 7010 ± 148 | 3.75 ± 0.6 | 35.9 ± 7.78 | 6220 ± 1350 | 6290 ± 1360 | 3.36 ± 0.46 | 29100 | 3.99 | 73 | OC[C@H]1OC(c2ccc(Cl)c(Cc3ccc(C4CCC5(CCC5)CC4)cc3)c2)[C@H](O)[C@@H](O)[C@@H]1O (some centres unmarked) [Compound 13] |  |  |
| 972 ± 164 | 984 ± 167 | 0.88 ± 0.21 | 18.9 ± 6.52 | 430 ± 166 | 464 ± 160 | 1.77 ± 0.47 | 1890 | 3.16 | 596 | OC[C@H]1OC(c2ccc(Cl)c(Cc3ccc(OC4C5COCC54)cc3)c2)[C@H](O)[C@@H](O)[C@@H]1O (some centres unmarked) [Compound 10] | 16.25 | 972.99 |
